Like-named read-outs stand apart in the source and are kept apart here. Marks after values point to notes of the source that are not given here.
What was measured:
[1] = tested on: MX-1 human breast xenografts; experiment: Subcutaneous MX-1 human breast xenografts; conditions: MX-1 s.c.
Text: FIG. 5. […] Data is from NCTEF-004.
FIG. 7. […] Data is from NCTEF-006.
FIG. 8. […] Data is from NCTEF-009.

[2] = Topotecan lactone species in plasma; assay type: in vivo, mice; conditions: after only 5 minutes
[3] = humans, daily for 5 consecutive days (d×5); cited from earlier work
[4] = cited from earlier work
[5] = MTD of free topotecan in humans; conditions: 1.5 vs 14 mg/M^2
[6] = MTD studies (weight loss over time); conditions: if the drug was infused over 5-10 minutes
Procedure: MTD studies. MTD studies were performed in the host mouse strain corresponding to each tumor model. Single dose and multidose MID were determined by monitoring weight loss over time.

[7] = tested on: LX-1 human SCLC xenografts; experiment: Subcutaneous LX-1 human SCLC xenografts; conditions: for % ILS (increase in lifespan) / DRD (drug related deaths) / LCK (log cell kill, gross) / MWL (maximum mean weight loss): LX-1 s.c.
Text: Topotecan was encapsulated in SM:CH (55:45) vesicles at a drug-to-lipid ratio of 0.10 (w/w) using the Mg-A23187 method as described in Experimental. All dilutions were made in sterile 0.9% saline immediately prior to injection. Drug administration was made via the lateral tail vein at 10 days post-tumor cell implantation when the tumors were 100-300 mm^3. Data points represent mean±SEM (n=6).
Topotecan was encapsulated in SM:CH (55:45) vesicles at a drug-to-lipid ratio of 0.10 (w/w) using the Mg-A23187 method as described in Experimental. All dilutions were made in sterile 0.9% saline immediately prior to injection. Drug administration was made via the lateral tail vein on day 14, 21 and 28 post-tumor cell implantation. Data points represent mean±SEM (n=6).
Tumor Models. […] Human MX-1 and LX-1 cell lines were obtained from the DCTD Tumor Repository in Frederick, Md. These cell lines were received as tumor fragments and were propagated in NCr nude mice by serial transplantation of 3×3 mm fragments. Experiments were not initiated until the cell lines had been through 3 passages in nude mice and the tumor lines were restarted when the passage number reached 10.
Efficacy Studies. […] For the MX-1 and LX-1 tumor models, tumor volume was determined by repeated perpendicular measurements of tumor dimensions and using the formula:

[8] = q7dx3, NCTEF-007, 10 mg/kg/dose i.v.
[9] = q7dx3, NCTEF-007, 30 mg/kg/dose i.v.
[10] = q7dx3, NCTEF-011, 10 mg/kg/dose i.v.
[11] = q7dx3, NCTEF-011, 30 mg/kg/dose i.v.

For `CC[C@@]1(O)C(=O)OCc2c1cc1n(c2=O)Cc2cc3c(CN(C)C)c(O)ccc3nc2-1` [Free, 9-dimethylaminomethyl-10-hydroxy-camptothecin], the “DRD (drug related deaths)” value ([1]; q3dx4, 1.25 mg/kg/dose i.v.) was 0/6, the “LCK (log cell kill, gross)” value ([1]; q3dx4, 1.25 mg/kg/dose i.v.) was 0.17 and the “MWL (maximum mean weight loss)” value ([1]; q3dx4, 1.25 mg/kg/dose i.v.) was “+^h”. For the same compound, the “TF (tumor free animals at end of study)” value ([1]; q3dx4, 1.25 mg/kg/dose i.v.) was 0/6, the “DRD (drug related deaths)” value ([1]; q3dx4, 10 mg/kg/dose i.v.) was 0/6 and the “LCK (log cell kill, gross)” value ([1]; q3dx4, 10 mg/kg/dose i.v.) was 0.21. The “MWL (maximum mean weight loss)” value ([1]; q3dx4, 10 mg/kg/dose i.v.) was “+”, the “TF (tumor free animals at end of study)” value ([1]; q3dx4, 10 mg/kg/dose i.v.) was 1/6 and the “DRD (drug related deaths)” value ([1]; q7dx3, 5 mg/kg/dose i.v.) was 0/6. For the same compound, the “LCK (log cell kill, gross)” value ([1]; q7dx3, 5 mg/kg/dose i.v.) was 0.15, the “MWL (maximum mean weight loss)” value ([1]; q7dx3, 5 mg/kg/dose i.v.) was “+” and the “TF (tumor free animals at end of study)” value ([1]; q7dx3, 5 mg/kg/dose i.v.) was 0/6. The “% T/C (optimal)” value ([1]; q7dx3, 10 mg/kg/dose i.v.) was 61%, the “DRD (drug related deaths)” value ([1]; q7dx3, 10 mg/kg/dose i.v.) was 0/6 and the “MWL (maximum mean weight loss)” value ([1]; q7dx3, 10 mg/kg/dose i.v.) was −0.8%. For the same compound, the “TF (tumor free animals at end of study)” value ([1]; q7dx3, 10 mg/kg/dose i.v.) was 0/6, the body weight ([1]; single dose 5, 10 and 40 mg/kg) was “all animals gained weight” and the drug-related deaths ([1]; single dose 5, 10 and 40 mg/kg) was “No drug-related deaths were observed”. For the same compound, the “% ILS (increase in lifespan)” value ([1]; single i.v. dose 5 mg/kg) was 0%, the “% T/C (optimal)” value ([1]; single i.v. dose 5 mg/kg) was 78% and the “DRD (drug related deaths)” value ([1]; single i.v. dose 5 mg/kg) was 0/6. The “LCK (log cell kill, gross)” value ([1]; single i.v. dose 5 mg/kg) was 0.02, the “MWL (maximum mean weight loss)” value ([1]; single i.v. dose 5 mg/kg) was “+” and the “T − C (tumor growth delay)” value ([1]; single i.v. dose 5 mg/kg) was 0.2 days. The “TF (tumor free animals at end of study)” value ([1]; single i.v. dose 5 mg/kg) was 0/6, the “% ILS (increase in lifespan)” value ([1]; single i.v. dose 10 mg/kg) was 13% and the “DRD (drug related deaths)” value ([1]; single i.v. dose 10 mg/kg) was 0/6. The “LCK (log cell kill, gross)” value ([1]; single i.v. dose 10 mg/kg) was 0.12, the “MWL (maximum mean weight loss)” value ([1]; single i.v. dose 10 mg/kg) was “+” and the “TF (tumor free animals at end of study)” value ([1]; single i.v. dose 10 mg/kg) was 0/6. For the same compound, the “% ILS (increase in lifespan)” value ([1]; single i.v. dose 40 mg/kg) was 35%, the “% T/C (optimal)” value ([1]; single i.v. dose 40 mg/kg) was 24% and the “DRD (drug related deaths)” value ([1]; single i.v. dose 40 mg/kg) was 0/6. For the same compound, the “LCK (log cell kill, gross)” value ([1]; single i.v. dose 40 mg/kg) was 0.35, the “MWL (maximum mean weight loss)” value ([1]; single i.v. dose 40 mg/kg) was “+” and the “TF (tumor free animals at end of study)” value ([1]; single i.v. dose 40 mg/kg) was 0/6. The “topotecan present in plasma as the lactone species” value [2] was 48%, the MTD [3] was 1.5 mg/M^2/dose and the LD10 ([4]; mouse, in vivo) was 14 mg/M2/dose. The LD10 ([4]; qd×5 schedule, Grochow et al.) was ~4.7 mg/kg/dose, the “human tolerated dose as share of the MTD in mice” value [5] was 11% and the “true MTD (based on weight loss), estimated” value [6] was ~60 mg/kg. The “anti-tumor activity (in words)” value ([7]; LX-1, initial single dose studies) was “inactive at evaluated doses<30 mg/kg”, the “% ILS (increase in lifespan)” value [7, 8] was 21% and the “DRD (drug related deaths)” value [7, 8] was 0/6. For the same compound, the “LCK (log cell kill, gross)” value [7, 8] was 0.14, the “MWL (maximum mean weight loss)” value [7, 8] was −6.2% and the “DRD (drug related deaths)” value [7, 9] was 0/6. For the same compound, the “LCK (log cell kill, gross)” value [7, 9] was 1.53, the “MWL (maximum mean weight loss)” value [7, 9] was −8.8% and the “DRD (drug related deaths)” value [7, 10] was 0/6. The “MWL (maximum mean weight loss)” value [7, 10] was −3.6%, the “DRD (drug related deaths)” value [7, 11] was 2/6 and the “MWL (maximum mean weight loss)” value [7, 11] was −16.4%. The “% ILS (increase in lifespan)” value ([7]; single i.v. dose 5 mg/kg) was 0%, the “DRD (drug related deaths)” value ([7]; single i.v. dose 5 mg/kg) was 0/6 and the “LCK (log cell kill, gross)” value ([7]; single i.v. dose 5 mg/kg) was 0.13. For the same compound, the “MWL (maximum mean weight loss)” value ([7]; single i.v. dose 5 mg/kg) was “+”, the “% ILS (increase in lifespan)” value ([7]; single i.v. dose 10 mg/kg) was 0% and the “DRD (drug related deaths)” value ([7]; single i.v. dose 10 mg/kg) was 0/6. The “LCK (log cell kill, gross)” value ([7]; single i.v. dose 10 mg/kg) was 0.18, the “MWL (maximum mean weight loss)” value ([7]; single i.v. dose 10 mg/kg) was “+” and the “% ILS (increase in lifespan)” value ([7]; single i.v. dose 30 mg/kg) was 7%. For the same compound, the “DRD (drug related deaths)” value ([7]; single i.v. dose 30 mg/kg) was 0/6, the “LCK (log cell kill, gross)” value ([7]; single i.v. dose 30 mg/kg) was 0.27 and the “MWL (maximum mean weight loss)” value ([7]; single i.v. dose 30 mg/kg) was −1.3%.
